Results as given in US6762174B1 (priority 1998, dated 2004).
Like-named read-outs stand apart in the source and are kept apart here.

How the values were obtained:
[1] = system: MT-1 breast cancer xenograft
MOPC-315 myeloma [2] = assay: MOPC-315 Myeloma study #3: β-alethine ip day 0 (3 × 10^5 tumor cells); conditions: for Animals Surviving: BT 100 ng/kg
[3] = system: MT-1 breast cancer xenograft; assay: MT-1 breast cancer xenograft: BT by intratumor injection; assay type: in vivo, male nude mice; set-up: Median RTV: unit not given here; conditions: for Median RTV: BT 30 ng intratumor
Procedure: In a parallel experiment, a low dose of 30 ng of BT was injected directly into the tumor on days 3, 17 and 31. The T/C for RTV measured on day 35 was 50%.

[4] = system: MT-1 breast cancer xenograft; assay: MT-1 breast cancer xenograft, second experiment: BT on day 3 only; assay type: in vivo, male nude mice
Procedure: In the second experiment with MT-1 breast cancer, BT was administered on day three only, at doses of […] to 3 micrograms/kg. The T/C ratio of treated vs. control median RTV was measured on day 28. […] The other doses of BT (30 ng, 3 ng, 0.3 ng, and 0.03 ng) alone were not effective in this experiment. These observations of RTV were made only through day 28.

MOPC-315 myeloma [5] = assay: MOPC-315 Myeloma study #2: β-alethine ip day 10 (1 × 10^6 tumor cells); conditions: for Mean Tumor Size: 3 mg BT alone
[6] = system: MT-1 breast cancer xenograft; remark: listed apart in the source

NCCC(=O)NCCSSCCNC(=O)CCN [BT, β-alethine]
Median Tumor Size ([1]; BT 30 ng/kg every 14 days, day 13): 0.080 cm^3
Median Tumor Size ([1]; BT 30 ng/kg every 14 days, day 16): 0.104 cm^3
Median Tumor Size ([1]; BT 30 ng/kg every 14 days, day 20): 0.176 cm^3
Median Tumor Size ([1]; BT 30 ng/kg every 14 days, day 23): 0.202 cm^3
Median Tumor Size ([1]; BT 30 ng/kg every 14 days, day 27): 0.250 cm^3
Median Tumor Size ([1]; BT 30 ng/kg every 14 days, day 30): 0.294 cm^3
Median Tumor Size ([1]; BT 30 ng/kg every 14 days, day 34): 0.298 cm^3
Median Tumor Size ([1]; BT 30 ng/kg every 14 days, day 38): 0.426 cm^3
Median Tumor Size ([1]; BT 30 ng/kg every 14 days, day 41): 0.429 cm^3
Median Tumor Size ([1]; BT 30 ng/kg every 14 days, day 45): 0.419 cm^3
RTV ([1]; BT 30 ng, day 13): 1
RTV ([1]; BT 30 ng, day 16): 1.4
RTV ([1]; BT 30 ng, day 20): 2.1
RTV ([1]; BT 30 ng, day 23): 2.3
RTV ([1]; BT 30 ng, day 27): 2.8
RTV ([1]; BT 30 ng, day 30): 3.4
RTV ([1]; BT 30 ng, day 34): 3.8
RTV ([1]; BT 30 ng, day 38): 4.5
RTV ([1]; BT 30 ng, day 41): 4.9
RTV ([1]; BT 30 ng, day 45): 6.0
Median Tumor Size ([1]; BT 30 ug/kg every 14 days, day 13): 0.055 cm^3
Median Tumor Size ([1]; BT 30 ug/kg every 14 days, day 16): 0.095 cm^3
Median Tumor Size ([1]; BT 30 ug/kg every 14 days, day 20): 0.180 cm^3
Median Tumor Size ([1]; BT 30 ug/kg every 14 days, day 23): 0.193 cm^3
Median Tumor Size ([1]; BT 30 ug/kg every 14 days, day 27): 0.325 cm^3
Median Tumor Size ([1]; BT 30 ug/kg every 14 days, day 30): 0.408 cm^3
Median Tumor Size ([1]; BT 30 ug/kg every 14 days, day 34): 0.410 cm^3
Median Tumor Size ([1]; BT 30 ug/kg every 14 days, day 38): 0.607 cm^3
Median Tumor Size ([1]; BT 30 ug/kg every 14 days, day 41): 0.696 cm^3
Median Tumor Size ([1]; BT 30 ug/kg every 14 days, day 45): 0.743 cm^3
RTV ([1]; BT 30 ug, day 13): 1
RTV ([1]; BT 30 ug, day 16): 1.4
RTV ([1]; BT 30 ug, day 20): 2.6
RTV ([1]; BT 30 ug, day 23): 3.0
RTV ([1]; BT 30 ug, day 27): 4.3
RTV ([1]; BT 30 ug, day 30): 5.2
RTV ([1]; BT 30 ug, day 34): 6.0
RTV ([1]; BT 30 ug, day 38): 9.1
RTV ([1]; BT 30 ug, day 41): 11.5
RTV ([1]; BT 30 ug, day 45): 14.0
Median Tumor Size ([1]; BT 30 fg/kg every 14 days, day 13): 0.104 cm^3
Median Tumor Size ([1]; BT 30 fg/kg every 14 days, day 16): 0.128 cm^3
Median Tumor Size ([1]; BT 30 fg/kg every 14 days, day 20): 0.213 cm^3
Median Tumor Size ([1]; BT 30 fg/kg every 14 days, day 23): 0.253 cm^3
Median Tumor Size ([1]; BT 30 fg/kg every 14 days, day 27): 0.442 cm^3
Median Tumor Size ([1]; BT 30 fg/kg every 14 days, day 30): 0.637 cm^3
Median Tumor Size ([1]; BT 30 fg/kg every 14 days, day 34): 1.062 cm^3
Median Tumor Size ([1]; BT 30 fg/kg every 14 days, day 38): 1.241 cm^3
Median Tumor Size ([1]; BT 30 fg/kg every 14 days, day 41): 1.464 cm^3
Median Tumor Size ([1]; BT 30 fg/kg every 14 days, day 45): 1.911 cm^3
RTV ([1]; BT 30 fg, day 13): 1
RTV ([1]; BT 30 fg, day 16): 1.6
RTV ([1]; BT 30 fg, day 20): 3.4
RTV ([1]; BT 30 fg, day 23): 4.4
RTV ([1]; BT 30 fg, day 27): 7.6
RTV ([1]; BT 30 fg, day 30): 9.3
RTV ([1]; BT 30 fg, day 34): 11.9
RTV ([1]; BT 30 fg, day 38): 16.1
RTV ([1]; BT 30 fg, day 41): 18.2
RTV ([1]; BT 30 fg, day 45): 19.8
Animals Surviving (MOPC-315 myeloma [2]; day 10): 10
Animals Surviving (MOPC-315 myeloma [2]; day 11): 10
Animals Surviving (MOPC-315 myeloma [2]; day 12): 10
Animals Surviving (MOPC-315 myeloma [2]; day 13): 10
Animals Surviving (MOPC-315 myeloma [2]; day 14): 7
Animals Surviving (MOPC-315 myeloma [2]; day 17): 0
survival prolonged to (MOPC-315 myeloma [2]; BT 3 mg/kg, control 16 days): 18 days
T/C for RTV ([3]; 30 ng BT into the tumor days 3, 17, 31, day 35): 50%
Median RTV ([3]; day 8): 1.27
Median RTV ([3]; day 11): 1.40
Median RTV ([3]; day 14): 1.77
Median RTV ([3]; day 17): 2.61
Median RTV ([3]; day 21): 3.74
Median RTV ([3]; day 24): 4.34
Median RTV ([3]; day 28): 4.93
Median RTV ([3]; day 31): 6.37
Median RTV ([3]; day 35): 8.01
effectiveness ([4]; BT 30 ng, 3 ng, 0.3 ng, 0.03 ng alone): not effective
T/C ratio of median RTV ([4]; BT 300 ng/kg day 3, day 28): 42%
Median RTV ([4]; BT 300 ng/kg on Day 3, day 8): 1.105
Median RTV ([4]; BT 300 ng/kg on Day 3, day 14): 1.243
Median RTV ([4]; BT 300 ng/kg on Day 3, day 21): 2.532
Median RTV ([4]; BT 300 ng/kg on Day 3, day 28): 3.317
T/C ratio of median RTV ([4]; BT 3 ug/kg day 3, day 28): 32%
Median RTV ([4]; BT 3 ug/kg on Day 3, day 8): 1.012
Median RTV ([4]; BT 3 ug/kg on Day 3, day 14): 0.955
Median RTV ([4]; BT 3 ug/kg on Day 3, day 21): 1.756
Median RTV ([4]; BT 3 ug/kg on Day 3, day 28): 2.526
Mean Tumor Size (MOPC-315 myeloma [5]; day 10): 21.5 mm
Mean Tumor Size (MOPC-315 myeloma [5]; day 14): 24 mm
Mean Tumor Size (MOPC-315 myeloma [5]; day 17): 24 mm
Mean Tumor Size (MOPC-315 myeloma [5]; day 21): (dead)
Animals Surviving (MOPC-315 myeloma [5]; BT 3 ng/kg, day 10): 10
Animals Surviving (MOPC-315 myeloma [5]; BT 3 ng/kg, day 11): 10
Animals Surviving (MOPC-315 myeloma [5]; BT 3 ng/kg, day 12): 10
Animals Surviving (MOPC-315 myeloma [5]; BT 3 ng/kg, day 13): 10
Animals Surviving (MOPC-315 myeloma [5]; BT 3 ng/kg, day 14): 7
Animals Surviving (MOPC-315 myeloma [5]; BT 3 ng/kg, day 15): 5
Animals Surviving (MOPC-315 myeloma [5]; BT 3 ng/kg, day 16): 5
Animals Surviving (MOPC-315 myeloma [5]; BT 3 ng/kg, day 17): 4
Animals Surviving (MOPC-315 myeloma [5]; BT 3 ng/kg, day 18): 1
Animals Surviving (MOPC-315 myeloma [5]; BT 3 ng/kg, day 19): 1
Animals Surviving (MOPC-315 myeloma [5]; BT 3 ng/kg, day 20): 1
Animals Surviving (MOPC-315 myeloma [5]; BT 3 ng/kg, day 21): 0
Animals Surviving (MOPC-315 myeloma [5]; BT 100 μg/kg, day 10): 10
Animals Surviving (MOPC-315 myeloma [5]; BT 100 μg/kg, day 11): 9
Animals Surviving (MOPC-315 myeloma [5]; BT 100 μg/kg, day 12): 6
Animals Surviving (MOPC-315 myeloma [5]; BT 100 μg/kg, day 13): 5
Animals Surviving (MOPC-315 myeloma [5]; BT 100 μg/kg, day 14): 5
Animals Surviving (MOPC-315 myeloma [5]; BT 100 μg/kg, day 15): 5
Animals Surviving (MOPC-315 myeloma [5]; BT 100 μg/kg, day 16): 4
Animals Surviving (MOPC-315 myeloma [5]; BT 100 μg/kg, day 17): 4
Animals Surviving (MOPC-315 myeloma [5]; BT 100 μg/kg, day 18): 1
Animals Surviving (MOPC-315 myeloma [5]; BT 100 μg/kg, day 19): 1
Animals Surviving (MOPC-315 myeloma [5]; BT 100 μg/kg, day 20): 0
Animals Surviving (MOPC-315 myeloma [5]; BT 3 mg/kg, day 10): 10
Animals Surviving (MOPC-315 myeloma [5]; BT 3 mg/kg, day 11): 9
Animals Surviving (MOPC-315 myeloma [5]; BT 3 mg/kg, day 12): 6
Animals Surviving (MOPC-315 myeloma [5]; BT 3 mg/kg, day 13): 5
Animals Surviving (MOPC-315 myeloma [5]; BT 3 mg/kg, day 14): 5
Animals Surviving (MOPC-315 myeloma [5]; BT 3 mg/kg, day 15): 5
Animals Surviving (MOPC-315 myeloma [5]; BT 3 mg/kg, day 16): 4
Animals Surviving (MOPC-315 myeloma [5]; BT 3 mg/kg, day 17): 4
Animals Surviving (MOPC-315 myeloma [5]; BT 3 mg/kg, day 18): 1
Animals Surviving (MOPC-315 myeloma [5]; BT 3 mg/kg, day 19): 1
Animals Surviving (MOPC-315 myeloma [5]; BT 3 mg/kg, day 20): 0
Animals Surviving (MOPC-315 myeloma [5]; BT 30 fg/kg, day 10): 10
Animals Surviving (MOPC-315 myeloma [5]; BT 30 fg/kg, day 11): 10
Animals Surviving (MOPC-315 myeloma [5]; BT 30 fg/kg, day 12): 9
Animals Surviving (MOPC-315 myeloma [5]; BT 30 fg/kg, day 13): 7
Animals Surviving (MOPC-315 myeloma [5]; BT 30 fg/kg, day 14): 5
Animals Surviving (MOPC-315 myeloma [5]; BT 30 fg/kg, day 15): 5
Animals Surviving (MOPC-315 myeloma [5]; BT 30 fg/kg, day 16): 1
Animals Surviving (MOPC-315 myeloma [5]; BT 30 fg/kg, day 17): 1
Animals Surviving (MOPC-315 myeloma [5]; BT 30 fg/kg, day 18): 0
T/C RTV d 49 ([6]; BT 30 mg/kg): 72%
T/C RTV d 59 ([6]; BT 30 mg/kg): 165%
effectiveness ([6]; BT 30 mg/kg alone): not effective
WBC d 46 ([6]; mouse, in vivo): 14.4 10^6/mL
